Assay results published in US20110318768A1, “METHOD FOR DETERMINING SENSITIVITY OF TUMOR CELLS TO TYROSINE KINASE INHIBITOR AND COMPUTER PROGRAM PRODUCT” (SYSMEX CORPORATION, priority 2010, published 2011).

What was measured:
Assay in all cases: Tyrosine kinase activity inhibition rate in cell membrane fraction (Poly-Glu4-Tyr substrate)
Type in all cases: biochemical
[1] = system: tyrosine kinase in cell membrane fraction of HCC1937; details: 25 μM kinase inhibitor, 25 μM ATP
Method in brief: (§1)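 Memb. fraction (1% NP-40 solubilized) 5 μg/ml; HEPES pH 7.4, 20 mM MgCl2/1 mM MnCl2/200 μM Na3VO4; ATP 25 μM; inhibitor 25 μM, 10 min RT preinc.; 60 min 37 °C on biotin-Poly-Glu4-Tyr; anti-pTyr-HRP chemilum.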

[2] = system: tyrosine kinase in cell membrane fraction of BT-483; details: 25 μM kinase inhibitor, 25 μM ATP
Method in brief: as §1

[3] = system: tyrosine kinase in cell membrane fraction of HCC1806; details: 25 μM kinase inhibitor, 25 μM ATP
Method in brief: as §1

[4] = system: tyrosine kinase in cell membrane fraction of SK-BR-3; details: 25 μM kinase inhibitor, 25 μM ATP
Method in brief: as §1

[5] = system: tyrosine kinase in cell membrane fraction of HCC1428; details: 25 μM kinase inhibitor, 25 μM ATP
Method in brief: as §1

[6] = system: tyrosine kinase in cell membrane fraction of HCC1569; details: 25 μM kinase inhibitor, 25 μM ATP
Method in brief: as §1

[7] = system: tyrosine kinase in cell membrane fraction of BT-20; details: 25 μM kinase inhibitor, 25 μM ATP
Method in brief: as §1

[8] = system: tyrosine kinase in cell membrane fraction of AU565; details: 25 μM kinase inhibitor, 25 μM ATP
Method in brief: as §1

[9] = system: tyrosine kinase in cell membrane fraction of BT-549; details: 25 μM kinase inhibitor, 25 μM ATP
Method in brief: as §1

[10] = system: tyrosine kinase in cell membrane fraction of MDA-MB-435S; details: 25 μM kinase inhibitor, 25 μM ATP
Method in brief: as §1

[11] = system: tyrosine kinase in cell membrane fraction of UACC812; details: UACC812; 25 μM kinase inhibitor, 25 μM ATP
Method in brief: as §1

[12] = system: tyrosine kinase in cell membrane fraction of MDA-MB-415; details: 25 μM kinase inhibitor, 25 μM ATP
Method in brief: as §1

Row | Compound | Inhibition rate [1] | Inhibition rate [2] | Inhibition rate [3] | Inhibition rate [4] | Inhibition rate [5] | Inhibition rate [6] | Inhibition rate [7] | Inhibition rate [8] | Inhibition rate [9] | Inhibition rate [10] | Inhibition rate [11] | Inhibition rate [12]
1 | COc1cc2ncnc(Nc3ccc(OCc4ccccc4)cc3)c2cc1OC [Inhibitor 3, 4-(4-benzyloxyanilino)-6,7-dimethoxyquinazoline] | 24.1% | 68.5% | 56.4% | 44.1% | 29.8% | 42.3% | 42.2% | 25.7% | 59.8% | 37.2% | 66.6% | 50.5%
2 | CCCNC(=O)Nc1ccc(Oc2ncnc3cc(OC)c(OC)cc23)cc1Cl [Inhibitor 7] | 17.3% | 17.3% | 27.7% | 45.0% | 12.9% | 16.6% | 2.3% | 7.1% | 24.0% | 10.5% | 28.5% | 25.1%
